Experimental data from ChEMBL document CHEMBL5338718, “Design and exploration of gut-restricted bifunctional molecule with TGR5 agonistic and DPP4 inhibitory effects for treating ulcerative colitis” (Eur J Med Chem, 2022).
The source made the active and inactive calls. The rule behind the calls is not given here.

How the values were obtained:
Dipeptidyl peptidase 4 = Dipeptidyl peptidase 4 (Mus musculus, UniProt P28843); assay: Inhibition of mouse serum DPP4 assessed as cleavage of substrate by measuring AMC release using Gly-Pro-AMC as substrate by fluorescence based microplate reader assay; format: cell-free
Dipeptidyl peptidase 4, sequence (P28843 whole entry): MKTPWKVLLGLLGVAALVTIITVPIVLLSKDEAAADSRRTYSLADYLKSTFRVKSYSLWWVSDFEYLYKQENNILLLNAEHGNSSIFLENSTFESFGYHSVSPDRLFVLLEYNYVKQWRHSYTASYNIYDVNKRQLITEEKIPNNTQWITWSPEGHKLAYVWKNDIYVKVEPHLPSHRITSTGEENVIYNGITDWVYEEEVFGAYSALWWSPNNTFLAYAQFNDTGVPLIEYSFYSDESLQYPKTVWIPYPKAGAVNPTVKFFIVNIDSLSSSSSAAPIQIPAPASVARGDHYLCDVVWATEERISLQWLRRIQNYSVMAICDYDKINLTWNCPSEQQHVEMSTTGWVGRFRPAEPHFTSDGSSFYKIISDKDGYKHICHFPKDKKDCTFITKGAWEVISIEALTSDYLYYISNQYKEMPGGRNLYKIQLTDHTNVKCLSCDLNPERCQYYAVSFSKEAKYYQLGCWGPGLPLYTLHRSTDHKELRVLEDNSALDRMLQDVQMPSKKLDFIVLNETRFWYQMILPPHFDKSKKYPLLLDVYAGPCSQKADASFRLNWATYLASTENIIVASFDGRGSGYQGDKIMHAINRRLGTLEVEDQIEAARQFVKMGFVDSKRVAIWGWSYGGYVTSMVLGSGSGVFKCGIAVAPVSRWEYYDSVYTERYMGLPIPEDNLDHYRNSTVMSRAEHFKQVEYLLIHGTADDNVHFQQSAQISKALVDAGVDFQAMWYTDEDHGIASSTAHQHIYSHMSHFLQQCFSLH

[1] = target: T1, G-protein coupled bile acid receptor 1 (Homo sapiens, UniProt Q8TDU6); assay: Agonist activity at human TGR5 expressed in human HEK293 cells co-expressing CRE-driven luciferase reporter gene assessed as luciferase activity incubated for 5.5 hrs by Steady-Glo based luciferase assay; format: functional, cell-based
T1 sequence (Q8TDU6 whole entry): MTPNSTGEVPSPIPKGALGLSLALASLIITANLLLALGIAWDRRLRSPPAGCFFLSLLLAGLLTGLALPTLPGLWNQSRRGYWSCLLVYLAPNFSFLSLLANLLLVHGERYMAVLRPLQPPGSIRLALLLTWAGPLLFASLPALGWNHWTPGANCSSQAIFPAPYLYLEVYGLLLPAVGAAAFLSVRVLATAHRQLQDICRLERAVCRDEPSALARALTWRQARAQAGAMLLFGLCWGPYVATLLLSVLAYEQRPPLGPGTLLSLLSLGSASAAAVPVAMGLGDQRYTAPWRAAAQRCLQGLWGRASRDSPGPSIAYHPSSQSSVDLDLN

[2] = target: T2, G-protein coupled bile acid receptor 1 (Mus musculus, UniProt Q80SS6); assay: Agonist activity at mouse TGR5 expressed in human HEK293 cells co-expressing CRE-driven luciferase reporter gene assessed as luciferase activity incubated for 5.5 hrs by Steady-Glo based luciferase assay; format: functional, cell-based
T2 sequence (Q80SS6 whole entry): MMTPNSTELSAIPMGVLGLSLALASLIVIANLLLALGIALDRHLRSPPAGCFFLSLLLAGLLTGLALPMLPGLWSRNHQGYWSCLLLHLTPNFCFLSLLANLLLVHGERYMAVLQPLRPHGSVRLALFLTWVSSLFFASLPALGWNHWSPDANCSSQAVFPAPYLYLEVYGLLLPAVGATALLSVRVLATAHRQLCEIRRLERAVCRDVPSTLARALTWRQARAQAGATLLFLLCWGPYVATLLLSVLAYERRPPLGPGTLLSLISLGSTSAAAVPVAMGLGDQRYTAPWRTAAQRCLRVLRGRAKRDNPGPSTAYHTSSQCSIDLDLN

Mus musculus [3] = assay: In vivo inhibition of DDP4 in ICR mouse assessed as decrease in enzyme activity in serum at 200 mg/kg,po and measured at 2 hrs using Gly-Pro-AMC as substrate by fluorescence based microplate reader assay; format: functional, organism-based
Mus musculus [4] = assay: In vivo inhibition of DDP4 in ICR mouse assessed as decrease in enzyme activity in serum at 200 mg/kg,po and measured after 8 hrs using Gly-Pro-AMC as substrate by fluorescence based microplate reader assay; format: functional, organism-based
Mus musculus [5] = assay: In vivo inhibition of DDP4 in ICR mouse assessed as decrease in enzyme activity in ileum at 200 mg/kg,po and measured after 8 hrs using Gly-Pro-AMC as substrate by fluorescence based microplate reader assay; format: functional, organism-based
Mus musculus [6] = assay: In vivo inhibition of DDP4 in ICR mouse assessed as decrease in enzyme activity in serum at 200 mg/kg,po and measured at 4 hrs using Gly-Pro-AMC as substrate by fluorescence based microplate reader assay; format: functional, organism-based
Mus musculus [7] = assay: In vivo inhibition of DDP4 in ICR mouse assessed as decrease in enzyme activity in ileum at 30 mg/kg,po and measured after 8 hrs using Gly-Pro-AMC as substrate by fluorescence based microplate reader assay; format: functional, organism-based
Mus musculus [8] = assay: Induction of gut restriction in overnight fasted ICR mouse assessed as effect on gallbladder-filling by measuring bile weight at 50 mg/kg, po and measured after 4 hrs by Vernier caliper analysis; format: functional, organism-based
Mus musculus [9] = assay: Induction of gut restriction in overnight fasted ICR mouse assessed as effect on gallbladder-filling by measuring gallbladder volume at 50 mg/kg, po and measured after 4 hrs by Vernier caliper analysis; format: functional, organism-based
[10] = Water solubility at pH 6.8; format: physicochemical

| SMILES | IC50 (Dipeptidyl peptidase 4) [nM] | EC50 [1] [nM] | EC50 [2] [nM] | solubility [10] [µM] | also measured |
| --- | --- | --- | --- | --- | --- |
| O=C(O)CCc1cc(Cl)c(Oc2ccsc2C(=O)N2CCN(C3CC3)c3ccccc32)cc1Cl | > 10000 | 11.2 | 10.5 | – | – |
| N[C@@H](CC(=O)N1CCn2c(nnc2C(F)(F)F)C1)Cc1cc(F)c(F)cc1F | – | – | – | – | inhibition (Mus musculus [3]): Active; inhibition (Mus musculus [4]): Active; inhibition (Mus musculus [5]): Active; inhibition (Mus musculus [6]): Active; inhibition (Mus musculus [7]): Active |
| O=C(c1cnccc1Oc1cc(Cl)ccc1Cl)N1CCN(C2CC2)c2ccccc21 | – | – | – | – | Activity (Mus musculus [8]): inactive; Activity (Mus musculus [9]): inactive |
| CC1C(=O)NCCCN1C(=O)C[C@H](N)Cc1cc(F)c(F)cc1F (mixture of isomers) | 10.4 | > 1000 | > 1000 | – | – |
| N[C@@H](CC(=O)N1CCCN(CC(=O)NCCOCCOCCOCCOCCOCCOCCOCCNC(=O)CCc2cc(Cl)c(Oc3ccsc3C(=O)N3CCN(C4CC4)c4ccccc43)cc2Cl)C(=O)C1Cc1ccccc1)Cc1cc(F)c(F)cc1F (mixture of isomers) | 103 | 3.6 | 2.1 | 20 | – |
| CC1C(=O)N(CC(=O)NCCOCCOCCOCCOCCOCCOCCOCCOCCNC(=O)CCc2cc(Cl)c(Oc3ccsc3C(=O)N3CCN(C4CC4)c4ccccc43)cc2Cl)CCCN1C(=O)C[C@H](N)Cc1cc(F)c(F)cc1F (mixture of isomers) | 64.8 | 3.2 | 2.4 | 50 | – |
| N[C@@H](CC(=O)N1CCCNC(=O)C1Cc1ccccc1)Cc1cc(F)c(F)cc1F (mixture of isomers) | 0.8 | – | – | – | – |
| N[C@@H](CC(=O)N1CCCN(CC(=O)NCCOCCOCCOCCNC(=O)CCc2cc(Cl)c(Oc3ccsc3C(=O)N3CCN(C4CC4)c4ccccc43)cc2Cl)C(=O)C1Cc1ccccc1)Cc1cc(F)c(F)cc1F (mixture of isomers) | 113 | 6.1 | 3.7 | 10 | – |
| CC1C(=O)N(CC(=O)NCCOCCOCCOCCOCCOCCOCCNC(=O)CCc2cc(Cl)c(Oc3ccsc3C(=O)N3CCN(C4CC4)c4ccccc43)cc2Cl)CCCN1C(=O)C[C@H](N)Cc1cc(F)c(F)cc1F.F (mixture of isomers) | 60.1 | 2.8 | 2.3 | 50 | – |
| N[C@@H](CC(=O)N1CCCN(CC(=O)NCCOCCOCCOCCOCCOCCOCCNC(=O)CCc2cc(Cl)c(Oc3ccsc3C(=O)N3CCN(C4CC4)c4ccccc43)cc2Cl)C(=O)C1Cc1ccccc1)Cc1cc(F)c(F)cc1F (mixture of isomers) | 112 | 3.7 | 2.3 | 20 | – |
| C.N[C@@H](CC(=O)N1CCCN(CC(=O)NCCOCCOCCOCCOCCOCCOCCOCCOCCNC(=O)CCc2cc(Cl)c(Oc3ccsc3C(=O)N3CCN(C4CC4)c4ccccc43)cc2Cl)C(=O)C1Cc1ccccc1)Cc1cc(F)c(F)cc1F (mixture of isomers) | 104 | 3.8 | 2.3 | – | – |
| CC1C(=O)N(CC(=O)NCCOCCOCCOCCOCCOCCNC(=O)CCc2cc(Cl)c(Oc3ccsc3C(=O)N3CCN(C4CC4)c4ccccc43)cc2Cl)CCCN1C(=O)C[C@H](N)Cc1cc(F)c(F)cc1F (mixture of isomers) | 57.5 | 2.5 | 2.3 | 50 | – |
| CC1C(=O)N(CC(=O)NCCOCCOCCOCCNC(=O)CCc2cc(Cl)c(Oc3ccsc3C(=O)N3CCN(C4CC4)c4ccccc43)cc2Cl)CCCN1C(=O)C[C@H](N)Cc1cc(F)c(F)cc1F (mixture of isomers) | 119 | 4.5 | 4.3 | – | – |
| CC1C(=O)N(CC(=O)NCCOCCOCCOCCOCCOCCOCCOCCNC(=O)CCc2cc(Cl)c(Oc3ccsc3C(=O)N3CCN(C4CC4)c4ccccc43)cc2Cl)CCCN1C(=O)C[C@H](N)Cc1cc(F)c(F)cc1F (mixture of isomers) | 54.8 | 2.8 | 2.1 | 50 | – |
| N[C@@H](CC(=O)N1CCCN(CC(=O)NCCOCCOCCOCCOCCOCCNC(=O)CCc2cc(Cl)c(Oc3ccsc3C(=O)N3CCN(C4CC4)c4ccccc43)cc2Cl)C(=O)C1Cc1ccccc1)Cc1cc(F)c(F)cc1F (mixture of isomers) | 124 | 4.9 | 2.7 | 10 | – |
| CC1C(=O)N(CC(=O)NCCN(C)C(=O)CCc2cc(Cl)c(Oc3ccsc3C(=O)N3CCN(C4CC4)c4ccccc43)cc2Cl)CCCN1C(=O)C[C@H](N)Cc1cc(F)c(F)cc1F (mixture of isomers) | 224 | 14.9 | 6 | – | – |
